According to US20240318160A1 (Wisconsin Alumni Research Foundation, priority 2023, published 2024):

Assays:
Type in all cases: biochemical
[1] = biological target: Arabidopsis thaliana AtPAL1 variant F144H (AtPAL1^F144H), SEQ ID NO: 261 (Arabidopsis thaliana, UniProt P35510, F144H); test: TAL and PAL enzyme kinetics; conditions: TAL assay (L-Tyr), pH 8.5, 30° C.
Procedure: (§1) A mixture containing 100 mM Tris-HCl (pH 8.5), 1% glycerol, and purified enzyme in a total volume of 50 μl was preincubated for 3 min at 30° C. […] The reactions were terminated by addition of 6N acetic acid (10 μl).
(§2) The kinetic parameters of the recombinant enzymes were determined using HPLC. Reaction mixtures containing 100 mM Tris-HCl (pH 8.5), 1% glycerol, and purified enzyme (0.15 μg for PAL assay and 1 μg for TAL assay) in a 50 μl total volume were preincubated for 3 min at 30° C. […] After 10 min and 20 min incubations for PAL and TAL assay, respectively, at 30° C., the reaction was terminated by addition of 6N acetic acid (10 μl). […] The products were quantified using calibration curves generated using authentic standards. Non-linear hyperbolic regression analyses were conducted using the Excel Solver tool to calculate Km and Vmax values.

[2] = system: Ecdeiocolea monostachya EmoPAL variant F134H (EmoPAL^F134H); test: TAL and PAL enzyme kinetics; conditions: TAL assay (L-Tyr), pH 8.5, 30° C.
Procedure: as §1, §2

[3] = system: Ecdeiocolea monostachya EmoPTAL variant H127F (EmoPTAL^H127F); test: TAL and PAL enzyme kinetics; conditions: TAL assay (L-Tyr), pH 8.5, 30° C.
Procedure: as §1, §2

[4] = system: Joinvillea ascendens JaPTAL, wild type, SEQ ID NO: 27; test: TAL and PAL enzyme kinetics; conditions: TAL assay (L-Tyr), pH 8.5, 30° C.
Procedure: as §1, §2

[5] = system: Sorghum bicolor SbPAL variant F135H (SbPAL^F135H); test: TAL and PAL enzyme kinetics; conditions: TAL assay (L-Tyr), pH 8.5, 30° C.
Procedure: as §1, §2

[6] = system: Streptochaeta angustifolia SaPTAL-a variant H118F (SaPTAL-a^H118F); test: TAL and PAL enzyme kinetics; conditions: TAL assay (L-Tyr), pH 8.5, 30° C.
Procedure: as §1, §2

[7] = system: Streptochaeta angustifolia SaPTAL-b variant H126F (SaPTAL-b^H126F); test: TAL and PAL enzyme kinetics; conditions: TAL assay (L-Tyr), pH 8.5, 30° C.
Procedure: as §1, §2

[8] = system: Joinvillea ascendens JaPAL^F140H_MUT8 variant A448S; test: TAL and PAL enzyme kinetics; conditions: TAL assay (L-Tyr), pH 8.5, 30° C.
Procedure: (§3) To determine which of the 8 circle residues are essential in the conversion of PAL enzymes to PTAL enzymes (FIG. 3C), we mutated, one by one, each one of these 8 residues back to the PAL type in JaPAL^F140H_MUT8 and determined their effects on catalytic efficiency.
as §1, §2

[9] = system: Joinvillea ascendens JaPAL^F140H_MUT8 variant G121A; test: TAL and PAL enzyme kinetics; conditions: TAL assay (L-Tyr), pH 8.5, 30° C.
Procedure: as §3, §1, §2

[10] = system: Joinvillea ascendens JaPAL^F140H_MUT8 variant I102V; test: TAL and PAL enzyme kinetics; conditions: TAL assay (L-Tyr), pH 8.5, 30° C.
Procedure: as §3, §1, §2

[11] = system: Joinvillea ascendens JaPAL^F140H_MUT8 variant I122S (in Table 3; I112S in text); test: TAL and PAL enzyme kinetics; conditions: TAL assay (L-Tyr), pH 8.5, 30° C.
Procedure: as §3, §1, §2

[12] = system: Joinvillea ascendens JaPAL^F140H_MUT8 variant L138I; test: TAL and PAL enzyme kinetics; conditions: TAL assay (L-Tyr), pH 8.5, 30° C.
Procedure: as §3, §1, §2

[13] = system: Joinvillea ascendens JaPAL^F140H_MUT8 variant S267A; test: TAL and PAL enzyme kinetics; conditions: TAL assay (L-Tyr), pH 8.5, 30° C.
Procedure: as §3, §1, §2

[14] = system: Joinvillea ascendens JaPAL^F140H_MUT8 variant T444P; test: TAL and PAL enzyme kinetics; conditions: TAL assay (L-Tyr), pH 8.5, 30° C.
Procedure: as §3, §1, §2

[15] = system: Joinvillea ascendens JaPAL^F140H_MUT8 variant V500I; test: TAL and PAL enzyme kinetics; conditions: TAL assay (L-Tyr), pH 8.5, 30° C.
Procedure: as §3, §1, §2

[16] = system: Joinvillea ascendens JaPAL variant F140H/S112I (JaPAL^F140H_S112I), SEQ ID NO: 145; test: TAL and PAL enzyme kinetics; conditions: TAL assay (L-Tyr), pH 8.5, 30° C.
Procedure: To test this hypothesis further, the reciprocal S112I mutation was introduced into the JaPAL^F140H single mutant to generate the JaPAL^F140H_S112I double mutant. For comparison, a single mutant in which the residue corresponding to Ser112 was converted to Ile (i.e., JaPAL^S112I) was generated as well.
as §1, §2

[17] = system: wild-type PTAL enzymes (SbPTAL, BdPTAL, SaPTAL-a, SaPTAL-b, EmoPTAL, JaPTAL); test: TAL enzyme kinetics, group of enzymes; conditions: TAL activity (Tyr), range over PTAL enzymes; read-out: apparent Km
Procedure: as §2

[18] = system: PTAL^H140F mutants (SbPTAL^H123F, BdPTAL^H123F, SaPTAL-a^H118F, SaPTAL-b^H126F, EmoPTAL^H127F, JaPTAL^H125F); test: TAL and PAL enzyme kinetics, group of enzymes; conditions: TAL activity, range over mutants
Source text: To experimentally test the role of His 140 in the acquisition of TAL activity, we next conducted site-directed mutagenesis on the PAL and PTAL enzymes of grasses and non-grass graminids characterized above and analyzed their effects on TAL activity. For the PAL enzymes, the residue corresponding to Phe 140 was converted to His to generate JaPAL^F140H EmoPAL^F134H, BdPAL^F137H, and SbPAL^F135H. […] For the PTAL enzymes, the residue corresponding to His 140 was converted to Phe to generate SbPTAL^H123F, BdPTAL^H123F, SaPTAL-a^H118F, SaPTAL-b^H126F, EmoPTAL^H127F, and JaPTAL^H125F. […] Thus, unlike in the bacterial TAL enzyme (Watts et al., 2006), other residues besides the His 140 are likely important for the acquisition of strong TAL activity in the PTAL enzymes of grasses and closely-related non-grass graminids.
The kinetic parameters of the recombinant enzymes were determined using HPLC. Reaction mixtures containing 100 mM Tris-HCl (pH 8.5), 1% glycerol, and purified enzyme (0.15 μg for PAL assay and 1 μg for TAL assay) in a 50 μl total volume were preincubated for 3 min at 30° C. PAL and TAL reactions were started by addition of 50 μl substrate solution prepared with 0-4 mM L-Phe and 0-2 mM L-Tyr. After 10 min and 20 min incubations for PAL and TAL assay, respectively, at 30° C., the reaction was terminated by addition of 6N acetic acid (10 μl). […] The products were quantified using calibration curves generated using authentic standards. Non-linear hyperbolic regression analyses were conducted using the Excel Solver tool to calculate Km and Vmax values.

[19] = system: PAL^F140H mutants (JaPAL^F140H, EmoPAL^F134H, BdPAL^F137H, SbPAL^F135H); test: TAL and PAL enzyme kinetics, group of enzymes; conditions: TAL activity, range over mutants
Procedure: as §2

Chain of Arabidopsis thaliana AtPAL1 variant F144H (AtPAL1^F144H), SEQ ID NO: 261 (P35510 whole entry F144H): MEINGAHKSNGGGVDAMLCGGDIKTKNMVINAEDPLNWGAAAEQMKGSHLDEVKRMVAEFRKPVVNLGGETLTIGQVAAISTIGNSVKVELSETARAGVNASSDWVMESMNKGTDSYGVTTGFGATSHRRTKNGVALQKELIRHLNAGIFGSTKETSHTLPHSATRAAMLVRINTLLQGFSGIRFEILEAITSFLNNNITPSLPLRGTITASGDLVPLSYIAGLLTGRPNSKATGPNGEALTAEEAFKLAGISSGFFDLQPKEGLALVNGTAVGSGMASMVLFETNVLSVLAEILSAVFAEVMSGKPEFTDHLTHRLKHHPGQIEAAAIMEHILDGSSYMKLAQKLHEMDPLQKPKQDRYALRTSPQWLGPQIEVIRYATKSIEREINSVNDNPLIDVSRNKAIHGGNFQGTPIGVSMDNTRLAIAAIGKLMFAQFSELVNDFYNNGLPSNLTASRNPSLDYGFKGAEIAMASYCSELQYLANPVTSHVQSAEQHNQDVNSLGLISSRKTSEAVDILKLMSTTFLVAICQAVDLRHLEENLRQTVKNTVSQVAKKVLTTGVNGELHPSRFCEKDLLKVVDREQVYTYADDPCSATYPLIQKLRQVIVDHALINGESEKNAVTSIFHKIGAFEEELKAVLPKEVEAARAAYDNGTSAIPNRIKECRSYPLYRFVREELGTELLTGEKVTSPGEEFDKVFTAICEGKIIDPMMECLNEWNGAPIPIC

Work on N[C@@H](Cc1ccc(O)cc1)C(=O)O [L-Tyr, tyrosine] yielded a kcat [1] of 0.01 ± 0.00 s⁻¹, a Km [2] of 450 ± 14.2 µM and a Km [3] of 614 ± 18.1 µM. It also gave a Km [4] of 11 ± 0.4 µM, a Km [5] of 413 ± 6.5 µM and a Km [6] of 531 ± 13.2 µM. It also gave a Km [7] of 724 ± 54.8 µM, a Km [8] of 23.3 ± 1 µM and a Km [9] of 12.6 ± 0.6 µM. It also gave a Km [10] of 24.5 ± 1.4 µM, a Km [11] of 282 ± 29 µM and a Km [12] of 18.3 ± 0.6 µM. For the same molecule, the Km [13] was 43.1 ± 1.5 µM, the Km [14] was 25.3 ± 2.4 µM and the Km [15] was 25.1 ± 3.2 µM. It also gave a Km [16] of 17.2 ± 0.7 µM, a Km [17] of 11 to 19 µM and a Km [18] of 531 to 765 µM. The Km [19] was 222 to 450 µM.
